The source of these data is patent US20080044829A1, “Biosensor Utilizing Pigment-Synthesizing Gene Of A Purple Non-Sulfur Bacterium And A Method For Preparing Such A Biosensor” (priority 2004, published 2008).

The test system of assay [1] is SENS-AS strain. Nature of the assay: Specificity of SENS-AS strain to metals other than arsenic. In kind it is cell-based, Rv. sulfidophilum. The text has this:
Therefore, specificity to metal of the SENS-AS strain was investigated by adding a sample containing metal other than arsenic to the SENS-AS strain and checking the responding property to those samples. With regard to the metal other than arsenic, there were used antimony and bismuth which have been reported to inherently show a responding property to ArsR and also cobalt, cadmium, nickel, zinc and lead where responding property in a protein having the similar sequence to metal-bonding site of ArsR has been confirmed already [L. S. Busenlehner, et al., (2003) FEMS Microbiol. Rev., 27:131-43]. The responding property was also tested for a solution in which iron, manganese, copper and aluminum which are abundantly contained in tap water were mixed. The experiment was carried out by the same method as in the detection of arsenic, rate of red pigments (DMSO and SO) to the total sum of DMSO, DMSE, SO and SE was calculated from the area value of each peak shown in the chart prepared as a result of an HPLC analysis, mean value and standard deviation for each sample were calculated and graphs were prepared.
From the above results, it was now made clear that the arsenic-detecting biosensor SENS-AS strain responded arsenic and bismuth. However, in order to respond to bismuth, a bismuth concentration of as high as 100-fold as compared with arsenic was necessary.

Assay [2] deals with ddhA gene (promoter Pddh of ddh operon). Nature of the assay: RT-PCR analysis of ddhA gene transcription induction by sulfur compounds. In kind it is cell-based, Rv. sulfidophilum W-1S. The following applies: 3 days in 4CMOM medium, bright aerobic and dark aerobic condition. The method, then:
Extraction of RNA was carried out using RNeasy Mini Kit (QIAGEN) according to the protocol attached thereto. For dissolving the cells at that time, lysozyme was added thereto in the indicated concentration. For the removal of the contaminated DNA, DNase I (TaKaRa) was used by the method indicated in the protocol together with the buffer attached thereto. Incubation was carried out at 37° C. for 30 minutes and, after that, RNA was purified via a PCI treatment and a precipitating operation with ethanol. A reverse transcription reaction was carried out where 1 μg of purified RNA as a template using an RNA PCR Kit (AMV) Ver. 2.1 (TaKaRa). In the reverse transcription reaction, things contained in the kit, i.e. reverse transcriptase, RNase inhibitor, random nonamer, buffer, dNTP and MgCl2 were used and the reaction was conducted at 45° C. for 28 minutes. A PCR was carried out by the same manner as in the above mentioned “4: PCR” using 4 μl of the solution after the reverse transcription reaction as a template.
Firstly, investigation of a DMS-inductive property of Pddh was planned. Primers ddhA1 and ddhA2 were designed based on ddhA gene sequence on the database. […]

The test system of assay [3] is DMS biosensor strain. Nature of the assay: Response of DMS biosensor strain (pSDMS in pigment variant): color tone and rate of red pigment by HPLC. In kind it is cell-based, Rv. sulfidophilum. The following applies: third day of incubation, bright aerobic condition, n=3. The method, then: When incubation of a bacterium strain was conducted in 10 ml of medium in a test tube under various conditions (under slightly aerobic and bright condition; under slightly aerobic and dark condition; and under anaerobic and bright condition), the incubation was done for three days. The culture liquid (1 ml) was placed in an Eppendorf tube, the pellets after centrifugal separation was frozen at −80° C. for 2 hours and then freeze-dried for one night. An appropriate amount (100 μl to 500 μl) of a mixed liquid of acetone and methanol was added to the resulting freeze-dried product, subjected to vortex for 2 minutes and then centrifuged for 5 minutes at 14,000 rpm using a portable centrifuge and the resulting supernatant liquid was used as a sample for an HPLC. […]
Since DMS is hardly soluble in water, ethanol was used as a solvent for the manufacture of concentrated stocks and preparation of diluted series. […] Analysis of pigment composition was conducted via an HPLC analysis the same as before and, from the value of area of each peak shown in the resulting HPLC chart, rate of red pigments (DMSO and SO) to the sum of total carotenoid pigment (DMSO, DMSE, SO, SE and neurosporene) was calculated. For each sample, mean value and standard deviation was calculated from the above value and a graph was prepared. […]

The structures appear in SMILES notation.

Turning to `[Bi]` [bismuth], in assay [1], the “concentration needed for response as compared with arsenic” value is 100 fold.

Turning to `C[S+](C)[O-]` [dimethyl sulfoxide], the “ddhA gene transcription induction” value in assay [2] is “no significant induction of ddhA gene transcription”.

For `CSC` [DMS, dimethyl sulfide], the “ddhA gene transcription induction” value in assay [2] is reported as “apparent ddhA gene transcription induction was observed”. Besides, the “DMS concentration giving significant accumulation of SO and discriminable color tone” value in assay [3] turned out to be 3 mM.
